The values below come from PubChem BioAssay AID850 (SRMLSC, 2007).

A short description of assay [1]: concentration-response yeast growth inhibition under permissive conditions, counter-assay for yeast lifespan-shortening chemical project (AID 850).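 Further: growth read as optical density after one day of incubation.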 The settings on record: Saccharomyces cerevisiae growth inhibition, permissive control, measured here: maximum growth inhibition, stronger effect = higher value.
Assay [2] relates to Saccharomyces cerevisiae growth inhibition, permissive control. Described as above.

Activity calls are given as the source filed them. How the calls were made is not given here.

On to `Nc1nc2sc3c(c2c(=O)s1)CCCC3`, for which the inhibition in assay [1] (at 0.195 µM) was 24.4%. The IC50 in assay [2] is > 100 µM (inactive).

`Cc1oc(-c2cccs2)nc1CS(=O)CC(=O)NC1CCCCCC1` (stereo not drawn): the inhibition in assay [1] (at 6.25 µM) is 18.9%. In assay [2], the IC50 was > 100 µM (inactive).

For the molecule `Cc1oc(-c2ccc3c(c2)OCCO3)cc1C(=O)O`, in assay [1] (at 25 µM), the inhibition stood at 48.3%. For the same molecule, the IC50 in assay [2] was 47.8 µM.

As to `CCC(C)NC(=O)CS(=O)Cc1nc(-c2ccccc2C)oc1C` (stereo not drawn), the inhibition in assay [1] (at 1.563 µM) was 23.5%. Moreover, the IC50 in assay [2] is > 100 µM (inactive).

For the molecule `Cc1ccc(C(C[N+](=O)[O-])n2nc(C)cc2C)cc1` (stereo not drawn), the inhibition in assay [1] (at 50 µM) came out at 99.2%. For the same molecule, the IC50 in assay [2] is 13 µM.

As for `O=C1CCCC/C1=N\Nc1ccc(OCc2ccccc2)cc1`, the inhibition in assay [1] (at 50 µM) is 72.5%. Besides, the concentration for half-maximal inhibition (IC50) in assay [2] is 29.7 µM.

Consider `CC(C)(C)n1nc(-c2ccc(F)cc2)c2c(N)ncnc21`, for which the inhibition in assay [1] (at 25 µM) turned out to be 86.7%. For the same molecule, the IC50 in assay [2] is less than 0.098 µM.

As for `COc1cc(/C=N/N(C)c2ccccc2)cc(Cl)c1O`, the inhibition in assay [1] (at 1.563 µM) was 14.6%. Besides, in assay [2], the IC50 was > 100 µM (inactive).

For the molecule `Cc1ccc(S(=O)(=O)Nc2ccc(SC(F)F)cc2)c(C)c1`, in assay [1] (at 0.781 µM), the inhibition turned out to be 21.4%. In assay [2], the IC50 was > 100 µM (inactive).

`Cc1ccc2c(c1)-c1nc3ccccc3cc1C2=NC1CCCCC1`: in assay [1] (at 50 µM), the inhibition came out at 16.8%. The IC50 in assay [2] is > 100 µM (inactive).

On to `CCC(=C(c1ccc(OC)cc1)c1ccc(OC)cc1)c1cn(CC(O)CN2CCN(C)CC2)c2ccccc12` (stereo not drawn), for which the inhibition in assay [1] (at 50 µM) was found to be 93.2%. For the same molecule, the IC50 in assay [2] is 33.9 µM.

With `Cc1cc(C)c2c(N=NN3CCOCC3)[nH]nc2n1`, in assay [1] (at 50 µM), the inhibition is 5.41%. In addition, in assay [2], the IC50 was > 100 µM (inactive).

Regarding `Oc1cc(-c2ccccc2)c2ccccc2c1`, the inhibition in assay [1] (at 50 µM) was 92.8%. Moreover, the IC50 in assay [2] was 35.3 µM.

As for `O=S(=O)(/N=C(\Sc1ccc(Cl)cc1)c1ccccc1)c1ccccc1`, the inhibition in assay [1] (at 50 µM) was 74%. Moreover, in assay [2], the IC50 was 33.3 µM.

For the molecule `CN1C(=O)C2(N=c3ccccc3=N2)c2ccccc21`, in assay [1] (at 50 µM), the inhibition turned out to be 21.4%. Further, in assay [2], the IC50 was > 100 µM (inactive).

On to `O=C(Nc1cccc(N=Cc2cc(Cl)cc(Br)c2O)c1)c1ccco1`, for which the inhibition in assay [1] (at 50 µM) is 89.6%. Moreover, the IC50 in assay [2] is 25.8 µM.

Regarding `COc1ccc2nc(/N=C(\N)NC(=O)Nc3ccccc3)nc(C)c2c1`, the inhibition in assay [1] (at 50 µM) was 73.7%. Moreover, in assay [2], the 50% inhibitory concentration (IC50) was 33.8 µM.

As for `Cc1nc2ccc(C(=O)O)cc2[nH]1`, in assay [1] (at 0.391 µM), the inhibition worked out at 27.5%. The IC50 in assay [2] is > 100 µM (inactive).

With `Cn1c(C(=O)N2CCC(C(=O)N3CCN(Cc4ccc5c(c4)OCO5)CC3)CC2)cc2sccc21`, in assay [1] (at 12.5 µM), the inhibition was 18%. Besides, the IC50 in assay [2] is > 100 µM (inactive).

On to `COc1ccc(OC)c(CCNC(=O)Cn2sc3nc(C)cc(C)c3c2=O)c1`, for which the inhibition in assay [1] (at 0.391 µM) was found to be 13%. Moreover, in assay [2], the IC50 was > 100 µM (inactive).

As for `CCOC(=O)c1cnc(-n2nc(C)cc2C)nc1NCCc1ccccc1`, the inhibition in assay [1] (at 50 µM) is 17.4%. The IC50 in assay [2] is > 100 µM (inactive).

`CCOC(=O)C(=NC(C)CC)NNc1ccc(Br)cc1` (stereo not drawn): the inhibition in assay [1] (at 50 µM) was 97.4%. The IC50 in assay [2] is 4.03 µM.

As to `O=C1OCC(CO)(CO)N=C1NNc1cc(Cl)ccc1Cl`, in assay [1] (at 50 µM), the inhibition was 99.2%. Moreover, the half-inhibitory concentration (IC50) in assay [2] is 11.4 µM.

As for `CCCCN=C(NNc1ccc(Br)cc1)C(=O)OCC`, the inhibition in assay [1] (at 50 µM) came to 97.9%. Moreover, in assay [2], the half-maximal inhibitory concentration (IC50) is 5.51 µM.

On to `CCCCOC(=O)Sc1nc2ccccc2o1`, for which the inhibition in assay [1] (at 50 µM) is 101%. Besides, in assay [2], the IC50 is 14.5 µM.

As to `Cc1c(N=Cc2cc(Br)cc(Br)c2O)cccc1C(=O)O`, the inhibition in assay [1] (at 50 µM) worked out at 99%. In addition, the IC50 in assay [2] was 6.96 µM.

Turning to `COc1ccc2cc(C(=O)O)ccc2c1`, the inhibition in assay [1] (at 50 µM) stood at 72.1%. Moreover, in assay [2], the IC50 is 20.5 µM.

As to `N#CSCC(=O)c1cccc2ccccc12`, in assay [1] (at 12.5 µM), the inhibition was 26.9%. Further, the IC50 in assay [2] was > 100 µM (inactive).

As for `COC(=O)CSCc1nc2ccccc2[nH]c1=O`, the inhibition in assay [1] (at 1.563 µM) was found to be 20.2%. Also, the IC50 in assay [2] was > 100 µM (inactive).

With `CN1C(=O)c2cccc3c(Cl)ccc(c23)C1=O`, the inhibition in assay [1] (at 50 µM) came out at 19.1%. Further, the IC50 in assay [2] is > 100 µM (inactive).

`Cc1cc(C(=O)COC(=O)c2ccc[nH]c2=O)c(C)n1-c1ccc(F)cc1`: the inhibition in assay [1] (at 50 µM) turned out to be 12.8%. Besides, in assay [2], the IC50 is > 100 µM (inactive).

For `CCCCCCCCCCCCCCCC(O)C(N)CO` (stereo not drawn), the inhibition in assay [1] (at 50 µM) is 99.2%. Also, the concentration for half-maximal inhibition (IC50) in assay [2] was 24.8 µM.

As for `C=CCNC(=S)N/N=C(\C)c1ccccn1`, the inhibition in assay [1] (at 50 µM) amounted to 99.4%. In assay [2], the IC50 was 13.8 µM.

For the molecule `Oc1c(Br)cc(Cl)cc1C=Nc1ccccc1Br`, the inhibition in assay [1] (at 50 µM) was 100%. In assay [2], the IC50 is 7.27 µM.
